Laboratory results: US7138361B2, “Herbicidal heterocycles” (E. I. du Pont de Nemours and Company, priority 2000, dated 2006)

Experiments:
Assay type in all cases: in vivo
[1] = test system: Surinam grass (Brachiaria decumbens); assay: Test B postemergence
How it was run: (§1)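 Greenhouse test: chemicals are formulated in a surfactant-containing non-phytotoxic solvent and applied either preemergence to planted seeds or postemergence to plants 2 to 18 cm tall. Response is rated visually versus controls after 13 to 15 days, 0 meaning no effect and 100 complete control.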

[2] = test system: barnyardgrass (Echinochloa crus-galli); assay: Test B postemergence
How it was run: as §1

[3] = test system: blackgrass (Alopecurus myosuroides); assay: Test B postemergence
How it was run: as §1

[4] = test system: cocklebur (Xanthium strumarium); assay: Test B postemergence
How it was run: as §1

corn (Zea mays) [5] = assay: Test B postemergence
How it was run: as §1

[6] = test system: crabgrass (Digitaria sanguinalis); assay: Test B postemergence
How it was run: as §1

[7] = test system: giant foxtail (Setaria faberii); assay: Test B postemergence
How it was run: as §1

[8] = test system: lambsquarters (Chenopodium album); assay: Test B postemergence
How it was run: as §1

[9] = test system: morning glory (Ipomoea hederacea); assay: Test B postemergence
How it was run: as §1

[10] = test system: pigweed (Amaranthus retroflexus); assay: Test B postemergence
How it was run: as §1

[11] = test system: velvetleaf (Abutilon theophrasti); assay: Test B postemergence
How it was run: as §1

[12] = test system: wheat (Triticum aestivum); assay: Test B postemergence
How it was run: as §1

wild oat (Avena fatua) = assay: Test B postemergence
How it was run: as §1

[13] = test system: Surinam grass (Brachiaria decumbens); assay: Test B preemergence
How it was run: as §1

[14] = test system: barnyardgrass (Echinochloa crus-galli); assay: Test B preemergence
How it was run: as §1

[15] = test system: cocklebur (Xanthium strumarium); assay: Test B preemergence
How it was run: as §1

corn (Zea mays) [16] = assay: Test B preemergence
How it was run: as §1

[17] = test system: crabgrass (Digitaria sanguinalis); assay: Test B preemergence
How it was run: as §1

[18] = test system: giant foxtail (Setaria faberii); assay: Test B preemergence
How it was run: as §1

[19] = test system: lambsquarters (Chenopodium album); assay: Test B preemergence
How it was run: as §1

[20] = test system: morning glory (Ipomoea hederacea); assay: Test B preemergence
How it was run: as §1

[21] = test system: pigweed (Amaranthus retroflexus); assay: Test B preemergence
How it was run: as §1

rice (Oryza saliva) [22] = assay: Test B preemergence
How it was run: as §1

[23] = test system: velvetleaf (Abutilon theophrasti); assay: Test B preemergence
How it was run: as §1

[24] = test system: barnyardgrass (Echinochloa crus-galli); assay: Test B flooded paddy test; details: Rate 1000 g/ha, scale of 0 to 100 where 0 is no effect and 100 is complete control, visually evaluated after 13 to 15 days
How it was run: (§2)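 Visual injury score on a 0–100 scale, where 100 means complete control, assigned against untreated controls 13 to 15 days after plants at the 2-leaf stage were treated under flooded paddy conditions.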

[25] = test system: duck salad (Heteranthera limosa); assay: Test B flooded paddy test; details: Rate 1000 g/ha, scale of 0 to 100 where 0 is no effect and 100 is complete control, visually evaluated after 13 to 15 days
How it was run: as §2

rice (Oryza saliva) [26] = assay: Test B flooded paddy test; details: Rate 1000 g/ha, scale of 0 to 100 where 0 is no effect and 100 is complete control, visually evaluated after 13 to 15 days
How it was run: as §2

[27] = test system: smallflower flatsedge (Cyperus difformis); assay: Test B flooded paddy test; details: Rate 1000 g/ha, scale of 0 to 100 where 0 is no effect and 100 is complete control, visually evaluated after 13 to 15 days
How it was run: as §2

[28] = Rate 125 g/ha, scale 0 (no effect) to 100 (complete control), 13 to 15 days
[29] = Rate 500 g/ha, scale 0 to 100, 0 is no effect, 100 is complete control, 13 to 15 days
[30] = Preemergence, Rate 500 g/ha, scale 0 to 100, 0 no effect, 100 complete control
[31] = preemergence, Rate 125 g/ha, scale of 0 to 100 where 0 is no effect and 100 is complete control, 13 to 15 days
[32] = preemergence, Rate 125 g/ha, scale 0 to 100, 0 no effect, 100 complete control
[33] = Rate 125 g/ha, scale 0 to 100, 0 no effect, 100 complete control
[34] = Rate 500 g/ha, scale 0 (no effect) to 100 (complete control), 13 to 15 days

Cc1ccc(N2CCC(n3ccc(C(C)(C)C)n3)C2=O)cc1C(F)(F)F (stereo not shown) [Compound 47]
100: Plant response rating, Lambsquarters [19, 30] | Plant response rating, Pigweed [21, 30] | Plant response rating, Pigweed [21, 31] | Plant response rating, Flatsedge [27]
0: Plant response rating, Surinam grass [1, 28] | Plant response rating, Surinam grass [1, 29] | Plant response rating, Barnyardgrass [2, 28] | Plant response rating, Barnyardgrass [2, 29] | Plant response rating, Blackgrass [3, 28] | Plant response rating, Blackgrass [3, 29] | Plant response rating, Cocklebur [4, 28] | Plant response rating, Cocklebur [4, 29] | Plant response rating, Corn (corn (Zea mays) [5]; [28]) | Plant response rating, Corn (corn (Zea mays) [5]; [29]) | Plant response rating, Crabgrass [6, 28] | Plant response rating, Crabgrass [6, 29] | Plant response rating, Foxtail, Giant [7, 28] | Plant response rating, Foxtail, Giant [7, 29] | Plant response rating, Morningglory [9, 28] | Plant response rating, Morningglory [9, 29] | Plant response rating, Velvetleaf [11, 28] | Plant response rating, Velvetleaf [11, 29] | Plant response rating, Wheat [12, 28] | Plant response rating, Wheat [12, 29] | Plant response rating, Wild Oat (wild oat (Avena fatua); [28]) | Plant response rating, Wild Oat (wild oat (Avena fatua); [29]) | Plant response rating, Surinam grass [13, 30] | Plant response rating, Surinam grass [13, 31] | Plant response rating, Barnyardgrass [14, 30] | Plant response rating, Barnyardgrass [14, 31] | Plant response rating, Cocklebur [15, 30] | Plant response rating, Cocklebur [15, 31] | Plant response rating, Corn (corn (Zea mays) [16]; [30]) | Plant response rating, Corn (corn (Zea mays) [16]; [31]) | Plant response rating, Crabgrass [17, 30] | Plant response rating, Crabgrass [17, 31] | Plant response rating, Foxtail, Giant [18, 30] | Plant response rating, Foxtail, Giant [18, 31] | Plant response rating, Lambsquarters [19, 31] | Plant response rating, Morningglory [20, 30] | Plant response rating, Morningglory [20, 31] | Plant response rating, Rice (rice (Oryza saliva) [22]; [31]) | Plant response rating, Velvetleaf [23, 30] | Plant response rating, Velvetleaf [23, 31]
90: Plant response rating, Lambsquarters [8, 29]
70: Plant response rating, Lambsquarters [8, 28] | Plant response rating, Barnyardgrass [24] | Plant response rating, Rice (rice (Oryza saliva) [26])
20: Plant response rating, Rice (rice (Oryza saliva) [22]; [30]) | Plant response rating, Ducksalad [25]
50: Plant response rating, Pigweed [10, 28] | Plant response rating, Pigweed [10, 29]

CC(C)(C)c1ccn(C2C(=O)N(c3cccc(C(F)(F)F)c3)C[S+]2[O-])n1 (stereo not shown) [Compound 29]
20: Plant response rating, Lambsquarters [8, 29] | Plant response rating, Velvetleaf [11, 29] | Plant response rating, Barnyardgrass [14, 30] | Plant response rating, Velvetleaf [23, 30]
100: Plant response rating, Lambsquarters [19, 30]
30: Plant response rating, Pigweed [10, 28] | Plant response rating, Pigweed [10, 29] | Plant response rating, Morningglory [20, 30] | Plant response rating, Flatsedge [27]
0: Plant response rating, Surinam grass [1, 28] | Plant response rating, Surinam grass [1, 29] | Plant response rating, Barnyardgrass [2, 28] | Plant response rating, Barnyardgrass [2, 29] | Plant response rating, Blackgrass [3, 28] | Plant response rating, Blackgrass [3, 29] | Plant response rating, Cocklebur [4, 28] | Plant response rating, Cocklebur [4, 29] | Plant response rating, Corn (corn (Zea mays) [5]; [28]) | Plant response rating, Corn (corn (Zea mays) [5]; [29]) | Plant response rating, Crabgrass [6, 28] | Plant response rating, Foxtail, Giant [7, 28] | Plant response rating, Foxtail, Giant [7, 29] | Plant response rating, Lambsquarters [8, 28] | Plant response rating, Morningglory [9, 28] | Plant response rating, Morningglory [9, 29] | Plant response rating, Velvetleaf [11, 28] | Plant response rating, Wheat [12, 28] | Plant response rating, Wheat [12, 29] | Plant response rating, Wild Oat (wild oat (Avena fatua); [28]) | Plant response rating, Wild Oat (wild oat (Avena fatua); [29]) | Plant response rating, Surinam grass [13, 30] | Plant response rating, Surinam grass [13, 32] | Plant response rating, Barnyardgrass [14, 32] | Plant response rating, Cocklebur [15, 30] | Plant response rating, Cocklebur [15, 32] | Plant response rating, Corn (corn (Zea mays) [16]; [30]) | Plant response rating, Corn (corn (Zea mays) [16]; [32]) | Plant response rating, Crabgrass [17, 30] | Plant response rating, Crabgrass [17, 32] | Plant response rating, Foxtail, Giant [18, 30] | Plant response rating, Foxtail, Giant [18, 32] | Plant response rating, Lambsquarters [19, 32] | Plant response rating, Rice (rice (Oryza saliva) [22]; [30]) | Plant response rating, Barnyardgrass [24] | Plant response rating, Ducksalad [25] | Plant response rating, Rice (rice (Oryza saliva) [26])
70: Plant response rating, Pigweed [21, 30]
50: Plant response rating, Crabgrass [6, 29]

Cc1ccnc(N2CCC(n3ccc(C(C)(C)C)n3)C2=O)c1 (stereo not shown) [Compound 139]
70: Plant response rating, Flatsedge [27]
20: Plant response rating, Barnyardgrass [24]
0: Plant response rating, Surinam grass [1, 33] | Plant response rating, Surinam grass [1, 34] | Plant response rating, Barnyardgrass [2, 33] | Plant response rating, Barnyardgrass [2, 34] | Plant response rating, Blackgrass [3, 33] | Plant response rating, Blackgrass [3, 34] | Plant response rating, Cocklebur [4, 33] | Plant response rating, Cocklebur [4, 34] | Plant response rating, Corn (corn (Zea mays) [5]; [33]) | Plant response rating, Corn (corn (Zea mays) [5]; [34]) | Plant response rating, Crabgrass [6, 33] | Plant response rating, Crabgrass [6, 34] | Plant response rating, Foxtail, Giant [7, 33] | Plant response rating, Foxtail, Giant [7, 34] | Plant response rating, Lambsquarters [8, 33] | Plant response rating, Lambsquarters [8, 34] | Plant response rating, Morningglory [9, 33] | Plant response rating, Morningglory [9, 34] | Plant response rating, Pigweed [10, 33] | Plant response rating, Pigweed [10, 34] | Plant response rating, Velvetleaf [11, 33] | Plant response rating, Velvetleaf [11, 34] | Plant response rating, Wheat [12, 33] | Plant response rating, Wheat [12, 34] | Plant response rating, Wild Oat (wild oat (Avena fatua); [33]) | Plant response rating, Wild Oat (wild oat (Avena fatua); [34]) | Plant response rating, Surinam grass [13, 30] | Plant response rating, Surinam grass [13, 31] | Plant response rating, Barnyardgrass [14, 30] | Plant response rating, Barnyardgrass [14, 31] | Plant response rating, Cocklebur [15, 30] | Plant response rating, Corn (corn (Zea mays) [16]; [30]) | Plant response rating, Corn (corn (Zea mays) [16]; [31]) | Plant response rating, Crabgrass [17, 30] | Plant response rating, Crabgrass [17, 31] | Plant response rating, Foxtail, Giant [18, 30] | Plant response rating, Foxtail, Giant [18, 31] | Plant response rating, Morningglory [20, 30] | Plant response rating, Morningglory [20, 31] | Plant response rating, Pigweed [21, 31] | Plant response rating, Rice (rice (Oryza saliva) [22]; [30]) | Plant response rating, Rice (rice (Oryza saliva) [22]; [31]) | Plant response rating, Velvetleaf [23, 30] | Plant response rating, Velvetleaf [23, 31] | Plant response rating, Ducksalad [25] | Plant response rating, Rice (rice (Oryza saliva) [26])
100: Plant response rating, Lambsquarters [19, 30] | Plant response rating, Lambsquarters [19, 31] | Plant response rating, Pigweed [21, 30]
